According to patent publication US11344498B2, “Compositions and methods for on-demand high-efficiency triggerable anesthesia” (priority 2015, dated 2022):
Like-named read-outs stand apart in the source and are kept apart here.

Assays:
[1] = Method: Animals were anesthetized with isoflurane-oxygen and injected with 50 μL of 10 mg/mL sulforhodamine B PBS solution at the sciatic nerve co-injected with or without 50 μL of 50 μg/mL DMED. […] The supernatant was collected and methanol was added at a 1:1 vol ratio. […] The concentration of sulforhodamine B was analyzed by fluorescence (excitation/emission: 560/580 nm).
Liposomal pharmacokinetics studies were performed by co-injecting 200 μL of Lipo-PS-Srho with 200 μL of Lipo or Lipo-DMED at the sciatic nerve. At predetermined time points (30 min, 3 h, 7 h and 10 h), blood was harvested by tail-bleeding.

[2] = tested on: sciatic nerves and adjacent tissues; conditions: rat, in vivo
sciatic nerve = experiment: Motor nerve block, weight-bearing test (TTX, ultrasound, microbubbles); conditions: rat, in vivo

In the case of `Cc1cccc([C@H](C)c2cnc[nH]2)c1C` [DMED, (S)-4-[1-(2,3-Dimethylphenyl)ethyl]-3H-imidazole], the “decrease of peak Srho plasma concentration” value ([1]; rat, in vivo) is reported as 27.5% and the “time to peak Srho plasma level” value ([1]; rat, in vivo) is reported as 60 min.
For `CCN(CC)c1ccc2c(-c3ccc(S(=O)(=O)O)cc3S(=O)(=O)[O-])c3ccc(=[N+](CC)CC)cc-3oc2c1` [Srho, sulforhodamine B], the “time to peak Srho plasma level” value ([1]; free Srho without DMED) was 30 min.
In the case of `N=C1N[C@@H](O)[C@H]2[C@@H]3OC4(O)OC(C(O)[C@@]2(N1)[C@@H]4O)[C@]3(O)CO` (stereo partly drawn) [TTX, Tetrodotoxin], the inflammation score [2] is reported as 1, the myotoxicity score [2] is reported as 0 and the “median duration of motor nerve block” value (sciatic nerve) is reported as 0 min.
